The test system of one series is HBV replication. Put plainly: HBV replication inhibition in HepDES19 cells (strand-preferential qPCR). The settings on record: Hepatitis B virus, HBV replication, HepDES19 cells. A digest of the protocol: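 HepDES19 cells without tetracycline were dosed 48 h after induction of HBV replication and exposed for 72 h at 1% DMSO. Lysates were treated with micrococcal nuclease, then protease, to leave nuclease-protected viral DNA, which was measured by strand-preferential qPCR over 40 cycles.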
(Real-time PCR tracks product formation cycle by cycle.)

A short description of a further series: in vitro. Conditions: human, HepDES19 cells.
Another series deals with HepDES19 cells. The settings on record: Table 2 amides, MTT.
Series [1] deals with C. neoformans var. grubii, KN99. Put plainly: C. neoformans growth inhibition assay (limiting dilution). It is filed as cell-based, Cryptococcus neoformans. Conditions: 48 h, 35° C., read-out: C. neoformans MIC80. A digest of the protocol:
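Growth read as OD650 after 48 h unshaken culture at 35° C, resuspending cells before reading; inoculum OD650 0.001 in pH 7.0 MOPS-buffered YNB, 0.2% dextrose, 1% DMSO. MIC defined at 80% growth inhibition versus vehicle, values averaged from two or more independent triplicate runs.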

For the next series, the system named is HSV-1. Put plainly: Anti-HSV-1 replication assay (Vero cells, plaque titer). It is filed as cell-based, herpes simplex virus 1. The settings on record: for log reduction at 5 µM: compound at 5 μM, read-out: HSV-1 suppression 5 μM; for log reduction at 5 µM / log reduction at 1 µM: values separated by / are repeats; for log reduction at 1 µM: compound at 1 μM, read-out: HSV-1 suppression 1 μM.

For a further series, the system named is E. coli. Put plainly: Bacterial growth inhibition (E. coli). In kind it is cell-based. Conditions: Escherichia coli.
The target in a further series is T1, human RNaseH1 (Homo sapiens, UniProt O60930).
T1 sequence (O60930 1-286): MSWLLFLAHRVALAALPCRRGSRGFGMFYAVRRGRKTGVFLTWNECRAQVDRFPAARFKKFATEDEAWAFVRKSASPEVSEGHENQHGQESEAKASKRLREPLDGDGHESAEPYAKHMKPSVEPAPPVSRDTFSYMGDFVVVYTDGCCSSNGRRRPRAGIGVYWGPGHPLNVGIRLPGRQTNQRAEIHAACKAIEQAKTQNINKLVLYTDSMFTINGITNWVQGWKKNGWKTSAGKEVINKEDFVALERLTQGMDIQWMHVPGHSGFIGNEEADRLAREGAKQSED
Put plainly: Biochemical inhibition of human RNaseH1 activity. A digest of the protocol:
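Human enzyme (0.3 μg) with 100 nM RNA:DNA molecular-beacon substrate, 50 mM HEPES pH 8.0, 100 mM NaCl, 2 mM TCEP, compounds 0 to 500 μM, 5% DMSO; started with 5 mM MgCl2, fluorescence read at 37° C. HBV enzyme (C-terminally truncated MBP-HRHgtCΔ5) run in FRET format, monitored 90 min at 37° C., initial rates calculated.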

Series [2] deals with HBV RNaseH (MBP-HRHgtCΔ5) (Hepatitis B virus genotype C subtype ayr, UniProt Q69028). Put plainly: Biochemical inhibition of HBV RNaseH (FRET-based RNaseH assay). More on the design: a genotype C isolate which lacks the C-terminal 35 amino acids of the HBV RNaseH domain that are predicted to be unstructured; made in house. The settings on record: HBV RNaseH IC50 (μM), Table 2 amides. How it is done: Biochemical inhibition of human RNaseH1 activity. Quantitative inhibition of the human RNaseH1 in the biochemical assays was assessed using a molecular beacon assay as described previously (Edwards et al., 2017). Recombinant human RNaseH 1 (0.3 μg) was incubated with 100 nM RNA:DNA substrate, 50 mM HEPES pH 8.0, 100 mM NaCl, 2 mM Tris(2-carboxyethyl)phosphine hydrochloride (TCEP), 0.05% Tween20, 5 units of RNaseOut, test compounds (0 to 500 μM), and 5% DMSO in a 100 μL reaction volume. The substrate was formed by annealing a complementary RNA oligonucleotide to a hairpin DNA oligonucleotide to hold the hairpin DNA oligonucleotide in an open conformation. The DNA oligonucleotide has a 5′ fluorescein reporter and a 3′ black hole quencher. […] Reactions were initiated with 5 mM MgCl2 and fluorescence was read using a Synergy HTS multi-mode plate reader at 37° C. […] Quantitative inhibition of the human RNaseH1 in biochemical assays was assessed using a FRET-based RNaseH assay under conditions previously reported for an RNaseH molecular beacon assay (Edwards et al., 2017). […] Cleavage of the RNA strand released the fluorescein from quenching, increasing fluorescence. Reactions were monitored for 90 min at 37° C. in a plate reader and initial reaction rates were calculated. […]
Chain of HBV RNaseH (MBP-HRHgtCΔ5) (Q69028 691-808, stated change not applied): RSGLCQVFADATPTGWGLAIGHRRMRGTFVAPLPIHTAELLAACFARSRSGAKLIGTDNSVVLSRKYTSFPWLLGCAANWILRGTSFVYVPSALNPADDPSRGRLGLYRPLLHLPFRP

The test system of the next series is HSV-2. Put plainly: Anti-HSV-2 replication assay (Vero cells, plaque titer). It is filed as cell-based, herpes simplex virus 2. Conditions: Table 3 sulfur compounds; compound at 5 μM. How it is done:
HSV strains and cells used for HSV studies. […] HSV-1 and HSV-2 are de-identified clinical isolates from the Saint Louis University Hospital. Stocks were prepared after a single passage in cell culture and were titered by standard plaque assay (Knipe and Spang, 1982). Wild-type HSV-2 was laboratory strain 333. The TK-deficient mutant of HSV-2 strain 333, ΔTK−, contains a 180-bp KpnI-KpnI deletion in the UL23 open reading frame that abrogates TK activity (McDermott, et al, 1984). ΔTK− was the generous gift of Jim Smiley. Virus stocks were grown and titered on Vero cells (Morrison and Knipe, 1996).
Anti-HSV-1 and —HSV-2 replication assay. Compounds to be screened were diluted in PBS supplemented to contain 2% newborn calf serum and 1% glutamine and added in 100 μL volume to confluent cell monolayers in 24-well cluster plates Immediately thereafter HSV-1 and HSV-2, diluted in the supplemented PBS medium, were added to the wells in 50 μl volume such that the final concentration of compound was 50 μM and 5 μM and the multiplicity of infection was 0.1. The plates were incubated at 37° C. for 1 hour and then virus-containing inoculum was removed and the wells were washed once in PBS. Compounds, diluted to 50 μM and 5 μM in DMEM supplemented to contain 2% newborn calf serum and 1% each penicillin/streptomycin, were added at 0.5 mL/well. Plates were incubated at 37° C. an additional 23 hr, and then the plates were visually inspected through a phase contrast microscope for cytopathic effect, and for toxic effect. […] The entire contents of each well were collected by scraping. Samples were frozen at −80° C., and then subsequently thawed, sonicated, and infectious virus titer was determined by standard plaque assay on Vero cell monolayers. Because the compounds were dissolved at 10 mM in 100% DMSO, equivalent dilutions of DMSO were added to additional wells as a control for effects of the diluent. Each experiment was repeated once.

The mark [3] stands for this setting: Table 2 amides, tested 0.19 to 50 μM.
[4] abbreviates: Human alphaherpesvirus 1, Vero, Table 2 amides.
Setting [5] is: Cryptococcus neoformans, Table 2 amides, tested 0.19 to 50 μM.
The mark [6] stands for this setting: Table 2 amides, read-out: HuRH1 IC50.
The mark [7] stands for this setting: Human alphaherpesvirus 1, Vero, Table 3 sulfur compounds.

Converted amounts (≈) assume the structure as drawn. Like-named read-outs stand apart in the source and are kept apart here.

Description for in vitro: Cells used for toxicity and HBV studies. […] Cells were maintained in Dulbecco's modified Eagle's medium (DMEM)/F12 media supplemented with 10% fetal bovine serum (FBS) and 1% penicillin/streptomycin (P/S) with 1 μg/mL tetracycline. Synchronized expression of HBV pgRNA was induced by removing tetracycline from the culture medium.
Cytotoxicity Assays. Qualitative assessments of cytotoxicity were done visually by inspecting the cells in the primary screening assays. […] The next day the compounds were added at 0.78 to 100 μM in a final concentration of 1% (v/v) DMSO, and the cells were incubated for 24 hours under conditions identical to those employed for the viral replication inhibition assays. Mitochondrial toxicity was measured by incubating the cells with 0.25 mg/mL thiazolyl blue tetrazolium bromide (MTT, SigmaAldrich Chemical Co.), the cultures were incubated for 60 mM, metabolites were solubilized in acidic isopropanol, and absorbance was read at 570 nm. CC50 values were calculated by non-linear curve fitting using GraphPad Prism using the three-parameter variable-response log(inhibitor)-versus-response algorithm with the bottom value set to zero.

On to `Cc1cc(O)c(=O)c(O)cc1C(=O)N1CCNCC1` [compound 391], for which the EC50 (as a rule, the concentration giving half of the maximal effect) in the series with HBV replication (HepDES19, 72 h, Table 2 amides, plus-polarity DNA, 72 h) was determined as 0.46 ± 0.2 µM. Also, in “in vitro” (CC50), the cytotoxic concentration (CC50) (usually the concentration at which the toxic effect on the cells reaches its halfway point) at 24 h is above 20 µM. Also, the CC50 in the series with HepDES19 cells is 37.5 ± 4.8 µM. For the same compound, in series [1] (setting [3]), the MIC80 (in general, the lowest concentration that inhibits either 80% of growth or 80% of the strains tested, depending on the study) amounted to 40 µM (≈ 10.6 µg/mL). In addition, in the series on HSV-1 (setting [4]), the log reduction at 5 µM is 0.29.

In “in vitro” (CC50 (μM), Table 2 amides, MTT), `Cc1cc(O)c(=O)c(O)cc1C(=O)NCCc1ccccc1` [compound 710] displayed a CC50 at 24 h of 4.5 ± 3 µM. Also, the MIC80 against E. coli came out at 30 µM (≈ 8.98 µg/mL). Further, in series [1] (setting [5]), the MIC80 worked out at 2.5 µM (≈ 0.748 µg/mL). In the series on HSV-1 (setting [4]), the log reduction at 1 µM was determined as 0.15 and the log reduction at 5 µM turned out to be 1.69. Further, at human RNaseH1 (setting [6]), the IC50 (commonly the concentration needed to halve the response being measured) came to 32.3 ± 3.2 µM.

For the compound `Cc1cc(O)c(=O)c(O)cc1C(=O)N1CCNCC1` [compound 404], the CC50 in the series on HepDES19 cells amounted to 4.5 ± 1.4 µM. The MIC80 in [1] (setting [3]) stood at 9 µM (≈ 2.38 µg/mL). Further, the “Reduction of HSV-1 titers / suppression of HSV-1 replication at 5 μM” value in the series on HSV-1 (5 μM, plaque forming units (PFU)/ml) is recorded as “undetectable”.

For the compound `Cc1cc(O)c(=O)c(O)cc1C(=O)NCc1ccc(OC(F)(F)F)cc1` [compound 804], the IC50 in series [2] is 285 ± 226 µM; on human RNaseH1 (setting [6]) it was 802 ± 397 µM. This compound displayed a CC50 at 24 h in “in vitro” (CC50 (μM), Table 2 amides, MTT) of 30.1 ± 18 µM. For the same compound, the MIC80 in [1] (setting [5]) was 6.8 µM (≈ 2.51 µg/mL). For the same compound, the log reduction at 0.33 µM in the series with HSV-1 (Human alphaherpesvirus 1, Vero, Table 2 amides, compound at 0.33 μM, read-out: HSV-1 suppression 0.33 μM) worked out at 0.191. For the same compound, the log reduction at 1 µM in the series with HSV-1 (setting [4]) came to 0.292. For the same compound, in the series on HSV-1 (setting [4]), the log reduction at 5 µM came out at 1.75.

On to `O=c1c(O)cccc(Sc2cccc3ccccc23)c1O` [compound 839], for which the EC50 in the series with HBV replication (HepDES19, read-out: HBV EC50, Table 3 sulfur compounds) was 50 µM. This compound also returned a CC50 at 24 h in “in vitro” (CC50, Table 3 sulfur compounds, MTT) of 35.1 µM. Further, in series [1] (Cryptococcus neoformans, Table 3 sulfur compounds), the MIC80 was determined as 17 µM (≈ 5.04 µg/mL). For the same compound, in the series on HSV-1 (setting [7]), the log reduction at 1 µM is -0.1 and the log reduction at 5 µM came out at 3.21. Also, in the series on HSV-2, the “HSV-2 suppression 5 μM” value came out at 4.2 log10. For the same compound, on human RNaseH1 (Table 3 sulfur compounds, read-out: Hu RNaseH IC50), the IC50 was found to be 201 µM.

For `Cc1cc(O)c(=O)c(O)cc1C(=O)Nc1ccc(OCc2ccccc2)cc1` [compound 837], the results for the IC50 (in series [2]; at human RNaseH1 (setting [6])) were 118 ± 88.7 µM and 625 ± 451 µM, respectively. Besides, it took 8.7 ± 3.4 µM to reach half-maximal cytotoxicity in the series “in vitro” (CC50 (μM), Table 2 amides, MTT) (CC50 at 24 h). Besides, the MIC80 in [1] (setting [5]) was 4.5 µM (≈ 1.7 µg/mL). Also, the log reduction at 5 µM in the series on HSV-1 (setting [4]) is 4.09.

Source of the values: patent publication US12606529B2, “Sulfur and amide tropolone inhibitors of nucleotidyl transferases and uses therefor” (Saint Louis University, priority 2019, dated 2026).
